Measured values reported in patent US8889659B2, “Pain relief compositions, manufacture and uses” (API Genesis, LLC, priority 2011, dated 2014).

What was measured:
pain threshold = conditions: in vivo; cited from earlier work
[1] = cited from earlier work
nasal airway resistance = conditions: intranasal use, cited from earlier work
[2] = Diclofenac sodium solubility studies in solvents; type: physicochemical; conditions: for DICLOFENAC SODIUM SOLUBILITY: 2 wt. % Diclofenac Sodium
Experimental: All solubility samples were prepared in 20 gram sample size. The ingredients of each test samples were weighed to the nearest 0.01 grams. The 20 gram samples were mixed in 50 cc Pyrex glass beakers.
All solubility studies were performed with “Diclofenac Sodium Salt” obtained from Sigma Aldrich, St. Louis, Mo. (CAS #15307-79-6; Sigma-Aldrich Catalog No. D6899; Lot # BCBB7312; M.P. 275-277° C.)
The ingredients were thoroughly mixed at ambient temperatures ranging from 75° F. to 80° F.

[3] = Miscibility of diclofenac sodium and capsaicin liquid solutions
Experimental: The table below includes the compositions of 7 completely miscible and transparent diclofenac sodium and capsaicin liquid solutions that were prepared.
It is evident that alcohols (ethyl alcohol and/or ethoxydiglycol) are required to effect the solubility of Diclofenac salts within the oil based ingredients of the capsaicin vehicles.

blood flow = conditions: […] gel, topical, cited from earlier work
[4] = Solubility of nonivamide / capsaicin in methyl salicylate

CC1CC[C@H](C(C)C)[C@@H](O)C1 (some centres unmarked) [(d)-menthol]
analgesic effect (pain threshold) (pain threshold): completely devoid of any analgesic effect

CC(C)[C@@H]1CC[C@@H](C)C[C@H]1O [(l)-menthol]
analgesic effect (pain threshold) (pain threshold): able to increase pain threshold

CCOC(=O)c1ccc(N)cc1 [Benzocaine]
Aqueous Soluble. [1]: sparingly
Oil Soluble [1]: Soluble

CC12CCC(CC1=O)C2(C)C (centres unmarked) [Camphor]
Oil Soluble [1]: soluble

COc1cc(CNC(=O)CCCC/C=C/C(C)C)ccc1O [Capsaicin, N-(4-hydroxy-3-methoxybenzyl)-8-methylnon-trans-6-enamide]
reduction in nasal airway resistance (nasal airway resistance): 60%
effectiveness continued for (nasal airway resistance; in most patients): more than 4 months
Aqueous Soluble. [1]: insoluble
Oil Soluble [1]: soluble
solubility in alcohol, methyl salicylate, ether, benzene and chloroform [1]: freely soluble
solubility in water [1]: practically insoluble

O=C([O-])Cc1ccccc1Nc1c(Cl)cccc1Cl.[Na+] [Diclofenac Sodium]
DICLOFENAC SODIUM SOLUBILITY ([2]; Sample 1: 98 wt. % Methyl Salicylate, ambient 75-80° F.): Sparingly Soluble/Insoluble
DICLOFENAC SODIUM SOLUBILITY ([2]; Sample 2: 50 wt. % Methyl Salicylate, 15 wt. % Menthol, 11 wt. % Camphor, 1.5 wt. % Phenol, 20.5 wt. % Macadamia Nut Oil): Sparingly Soluble/Insoluble
DICLOFENAC SODIUM SOLUBILITY ([2]; Sample 3: 98 wt. % Ethyl Alcohol): ^(10)Completely Soluble
DICLOFENAC SODIUM SOLUBILITY ([2]; Sample 4: 98 wt. % Transcutol): ^(10)Completely Soluble
DICLOFENAC SODIUM SOLUBILITY ([2]; Sample 5: 88 wt. % Methyl Salicylate, 10 wt. % Ethyl Alcohol): ^(10)Completely Soluble
DICLOFENAC SODIUM SOLUBILITY ([2]; Sample 6: 50 wt. % Methyl Salicylate, 15 wt. % Menthol, 11 wt. % Camphor, 1.5 wt. % Phenol, 18.5 wt. % Macadamia Nut Oil): Sparingly Soluble/Insoluble
DICLOFENAC SODIUM SOLUBILITY ([2]; Sample 7: 50 wt. % Methyl Salicylate, 15 wt. % Menthol, 11 wt. % Camphor, 1.5 wt. % Phenol, 18.5 wt. % Ethyl Alcohol, 2 wt. % Capsaicin): ^(10)Completely Soluble
DICLOFENAC SODIUM SOLUBILITY ([2]; Sample 8: 50 wt. % Methyl Salicylate, 15 wt. % Menthol, 11 wt. % Camphor, 1.5 wt. % Phenol, 10.5 wt. % Ethyl Alcohol, 2 wt. % Capsaicin): ^(10)Completely Soluble
effect of heating to ˜35° C. on solubility ([2]; mixtures where solubility was sparingly soluble to insoluble): did not have a significant impact
concentration with complete solubility/miscibility in the ethyl alcohol capsaicin vehicle [3]: < 2 wt. %

CCO [Ethyl Alcohol]
Aqueous Soluble. [1]: miscible
Oil Soluble [1]: soluble

CC1CCC(C(C)C)C(O)C1 (centres unmarked) [Menthol]
blood flow remains reduced (blood flow; 10 minutes after application): ~20%
reduction of blood flow (blood flow; within 60 seconds of application): 35%
Oil Soluble [1]: soluble

COC(=O)c1ccccc1O [Methyl Salicylate, Methyl salicylate]
Aqueous Soluble. [1]: sparingly

CCCCCCCCC(=O)NCc1ccc(O)c(OC)c1 [Nonivamide, vanillylamide of n-nonanoic acid]
solubility levels in methyl salicylate [4]: exceeded 25 wt. %
precipitation from 30 wt. % solution in methyl salicylate ([4]; after 2 weeks of storage at 5° C.): no evidence of any precipitation
precipitation from 30 wt. % solution in methyl salicylate ([4]; powder added at ambient temperature, cooled to −10° C. for 10 hours): did not result in the precipitation

CCCNC(C)C(=O)Nc1ccccc1C (centres unmarked) [Prilocaine]
Aqueous Soluble. [1]: sparingly
Oil Soluble [1]: soluble
